Reference: article PMC8721871 (Biochemistry, 2021)

Assays:
Format in all cases: biochemical, Prescottella equi
Details in all cases: 50 mM HEPES pH 7.5, 25 °C (Methods: 2.5 mM HEPES)
[1] = test system: ReNHase (Fe-type nitrile hydratase); assay: spectrophotometric, acrylamide formation at […] nm
[2] = test system: ReNHase (Fe-type nitrile hydratase); assay: spectrophotometric, […],4-dihydroxybenzamide formation at […] nm
[3] = test system: ReNHase (Fe-type nitrile hydratase); assay: spectrophotometric, acetamide formation at […] nm
[4] = test system: ReNHase (Fe-type nitrile hydratase); assay: spectrophotometric, 3-hydroxybenzamide formation at […] nm
[5] = test system: ReNHase (Fe-type nitrile hydratase); assay: spectrophotometric, benzamide formation at […] nm

Question: How did the “Km (μM)” value [1] turn out when `C=CC#N` [acrylonitrile] was run?
Answer: 25 000 ± 11 000 μM

Question: Which Km [2] does the source give for `N#Cc1ccc(O)c(O)c1` [3,4-dihydroxybenzonitrile] here?
Answer: 168 ± 21 µM

Question: Which “Km (μM)” value [3] does the source give for `CC#N` [acetonitrile] here?
Answer: 25 000 ± 2000 μM

Question: Which Km [4] does the source give for `N#Cc1cccc(O)c1` [3-hydroxybenzonitrile] here?
Answer: 77 ± 17 µM

Question: For `N#Cc1ccccc1` [benzonitrile], which Km [5] is on record?
Answer: 13.2 ± 1.4 µM
